In ChEMBL document CHEMBL1201862, “PubChem BioAssay data set” (2004):
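Step 1: Grow cells in 96-well plates. Step 2: Expose to compound for 48 hours at 5 concentrations. Step 3: Interpolate endpoints linearly; if unreached, use highest concentration. GI50 is the concentration that inhibits growth by half.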 Active and inactive are the calls of the source. No stated cut-off is given here; in the data, active = GI50 up to about 1.1 µM and inactive = higher.

Key:
Experiment in all cases: NCI tumour cell line growth inhibition, 48 h
TK-10 = test system: TK-10
SK-MEL-5 = test system: SK-MEL-5
LOX IMVI = test system: LOX IMVI
SW-620 = test system: SW-620
SF-295 = test system: SF-295
SK-MEL-2 = test system: SK-MEL-2
IGROV-1 = test system: IGROV-1
HOP-62 = test system: HOP-62
M19-MEL = test system: M19-MEL
RXF 393 = test system: RXF 393
UACC-62 = test system: UACC-62
NCI-H460 = test system: NCI-H460
NCI-H522 = test system: NCI-H522
SF-268 = test system: SF-268
KM12 = test system: KM12
786-0 = test system: 786-0
MOLT-4 = test system: MOLT-4
KM-20L2 = test system: KM-20L2
U-251 = test system: U-251
NCI-H226 = test system: NCI-H226
LXFL 529 = test system: LXFL 529
SF-539 = test system: SF-539
A549 = test system: A549
HOP-18 = test system: HOP-18
SNB-78 = test system: SNB-78
HCT-15 = test system: HCT-15
SN12C = test system: SN12C
OVCAR-3 = test system: OVCAR-3
EKVX = test system: EKVX
M14 = test system: M14
NCI-H23 = test system: NCI-H23
SK-OV-3 = test system: SK-OV-3
Malme-3M = test system: Malme-3M
DMS-114 = test system: DMS-114
SNB-75 = test system: SNB-75
A498 = test system: A498
CCRF-CEM = test system: CCRF-CEM
UACC-257 = test system: UACC-257
ACHN = test system: ACHN
SK-MEL-28 = test system: SK-MEL-28
OVCAR-5 = test system: OVCAR-5
HCC 2998 = test system: HCC 2998
COLO 205 = test system: COLO 205
HL-60 = test system: HL-60
OVCAR-8 = test system: OVCAR-8
RPMI-8226 = test system: RPMI-8226
UO-31 = test system: UO-31
K562 = test system: K562
DLD-1 = test system: DLD-1
SR = test system: SR
HCT-116 = test system: HCT-116
HOP-92 = test system: HOP-92
HT-29 = test system: HT-29
CAKI-1 = test system: CAKI-1
SNB-19 = test system: SNB-19
OVCAR-4 = test system: OVCAR-4
XF498 = test system: XF498
DMS-273 = test system: DMS-273

Measured: GI50

N#Cc1ccc(OCCSCCCCCCCCCCSCCOc2ccc(C#N)cc2)cc1
> 100 µM: HCT-15
inactive: TK-10 > 100 µM | SK-MEL-5 3.03 µM | LOX IMVI > 100 µM | SW-620 > 100 µM | SF-295 22.6 µM | SK-MEL-2 > 100 µM | IGROV-1 > 100 µM | HOP-62 > 100 µM | M19-MEL > 100 µM | RXF 393 > 100 µM | UACC-62 > 100 µM | NCI-H460 > 100 µM | NCI-H522 29.6 µM | SF-268 > 100 µM | KM12 > 100 µM | 786-0 > 100 µM | MOLT-4 > 100 µM | KM-20L2 > 100 µM | U-251 > 100 µM | NCI-H226 > 100 µM | LXFL 529 > 100 µM | SF-539 > 100 µM | A549 > 100 µM | HOP-18 > 100 µM | SNB-78 > 100 µM | SN12C > 100 µM | OVCAR-3 > 100 µM | EKVX > 100 µM | M14 > 100 µM | NCI-H23 > 100 µM | SK-OV-3 > 100 µM | Malme-3M > 100 µM | DMS-114 1.29 µM | SNB-75 > 100 µM | A498 > 100 µM | CCRF-CEM > 100 µM | UACC-257 2.25 µM | ACHN > 100 µM | SK-MEL-28 > 100 µM | OVCAR-5 > 100 µM | HCC 2998 > 100 µM | COLO 205 > 100 µM | HL-60 > 100 µM | OVCAR-8 > 100 µM | RPMI-8226 > 100 µM | K562 > 100 µM
active: UO-31 0.402 µM

Cc1nnc(N/N=C2/C(=O)Nc3c(Cl)cc(Cl)cc32)n1N
> 100 µM: HCT-15
inactive: TK-10 > 100 µM | LOX IMVI > 100 µM | SW-620 > 100 µM | SF-295 > 100 µM | DLD-1 > 100 µM | SK-MEL-2 > 100 µM | IGROV-1 > 100 µM | HOP-62 > 100 µM | SR 73.8 µM | M19-MEL > 100 µM | RXF 393 59.2 µM | HCT-116 > 100 µM | UACC-62 > 100 µM | NCI-H460 > 100 µM | NCI-H522 34.2 µM | SF-268 > 100 µM | KM12 > 100 µM | 786-0 > 100 µM | MOLT-4 44.8 µM | KM-20L2 > 100 µM | U-251 > 100 µM | NCI-H226 > 100 µM | LXFL 529 > 100 µM | SF-539 > 100 µM | A549 > 100 µM | HOP-18 73.1 µM | SNB-78 > 100 µM | HOP-92 > 100 µM | HT-29 > 100 µM | SN12C > 100 µM | OVCAR-3 > 100 µM | EKVX > 100 µM | M14 > 100 µM | CAKI-1 81.1 µM | NCI-H23 > 100 µM | SK-OV-3 > 100 µM | Malme-3M > 100 µM | A498 > 100 µM | CCRF-CEM 57.5 µM | UACC-257 > 100 µM | ACHN > 100 µM | SNB-19 > 100 µM | SK-MEL-28 > 100 µM | OVCAR-4 > 100 µM | OVCAR-5 > 100 µM | HCC 2998 > 100 µM | COLO 205 > 100 µM | HL-60 > 100 µM | OVCAR-8 > 100 µM | RPMI-8226 > 100 µM | UO-31 > 100 µM | K562 > 100 µM

O=c1c2cc(O)ccc2n2nnc3ccc(NCCNCCO)c1c32
49.1 µM: HCT-15
inactive: LOX IMVI 1.71 µM | SF-295 11.7 µM | HCT-116 2.65 µM | SF-268 1.59 µM | KM12 11.2 µM | 786-0 3.55 µM | U-251 1.82 µM | NCI-H226 2.31 µM | LXFL 529 1.86 µM | SF-539 3.85 µM | HOP-18 24.3 µM | HOP-92 2.06 µM | HT-29 6.62 µM | EKVX 14.5 µM | CAKI-1 4.2 µM | NCI-H23 5.92 µM | SK-OV-3 5.4 µM | DMS-114 1.71 µM | SNB-19 4.85 µM | OVCAR-4 3.84 µM | COLO 205 4.26 µM | OVCAR-8 1.86 µM | RPMI-8226 14.1 µM | UO-31 16.3 µM

CC1(C)CCOC(Sc2ccccc2)C1 (configuration not stated)
50.6 µM: HCT-15
inactive: XF498 > 100 µM | TK-10 > 100 µM | SK-MEL-5 15 µM | LOX IMVI 91.4 µM | SW-620 > 100 µM | SF-295 66.2 µM | DLD-1 > 100 µM | SK-MEL-2 30.3 µM | IGROV-1 > 100 µM | HOP-62 > 100 µM | SR 39.6 µM | M19-MEL 30.3 µM | RXF 393 32.1 µM | HCT-116 60.4 µM | UACC-62 38.5 µM | NCI-H460 84.9 µM | NCI-H522 18.8 µM | SF-268 > 100 µM | KM12 76.6 µM | 786-0 > 100 µM | MOLT-4 23.2 µM | KM-20L2 47.4 µM | U-251 18.7 µM | LXFL 529 > 100 µM | A549 24.3 µM | SNB-78 > 100 µM | SN12C > 100 µM | OVCAR-3 87.1 µM | EKVX > 100 µM | M14 53.2 µM | CAKI-1 96.8 µM | NCI-H23 10.8 µM | SK-OV-3 > 100 µM | DMS-114 21.3 µM | SNB-75 53.2 µM | A498 67.3 µM | CCRF-CEM 32.4 µM | UACC-257 35.2 µM | ACHN 63.7 µM | DMS-273 28.2 µM | SNB-19 > 100 µM | SK-MEL-28 > 100 µM | OVCAR-4 52.8 µM | HCC 2998 > 100 µM | COLO 205 52.2 µM | HL-60 10.5 µM | OVCAR-8 > 100 µM | RPMI-8226 18.3 µM | UO-31 80.9 µM | K562 21.9 µM
